Reference: PubChem BioAssay AID256 (DTP/NCI, 2004)
Values joined by “and” are separate entries in the source; they are usually repeats but may differ in a detail not shown here. Equal values may be shown once. Toxic doses and inconclusive results are not listed. Rule for the calls: active = survival T/C of 150% or more; inactive = T/C below 125% in these data.

Test system: CD2F1 mice, L1210 leukemia ip, survival T/C
Assay: NCI In Vivo Anticancer Drug Screen. Data for tumor model L1210 Leukemia (intraperitoneal) in CD2F1 (CDF1) mice
Details: higher = longer survival
Outline: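 Activity against a transplanted murine tumor was judged by comparing the compound group with a vehicle group. The outcome in the treated animals was divided by that in the controls.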

[1] = endpoint: mean survival time, dose: 100.0 mg/kg/injection, schedule: Q01DX009 (ip), vehicle: saline with Tween-80
[2] = endpoint: mean survival time, dose: 100.0 mg/kg/injection, schedule: Q04DX003 (ip), vehicle: saline with Tween-80
[3] = endpoint: mean survival time, dose: 200.0 mg/kg/injection, schedule: Q01DX009 (ip), vehicle: saline with Tween-80
[4] = endpoint: mean survival time, dose: 200.0 mg/kg/injection, schedule: Q04DX003 (ip), vehicle: saline with Tween-80
[5] = endpoint: mean survival time, dose: 400.0 mg/kg/injection, schedule: Q01DX009 (ip), vehicle: saline with Tween-80
[6] = endpoint: mean survival time, dose: 400.0 mg/kg/injection, schedule: Q04DX003 (ip), vehicle: saline with Tween-80
[7] = endpoint: median survival time, dose: 50.0 mg/kg/injection, schedule: Q01DX005 (ip), vehicle: saline
[8] = endpoint: median survival time, dose: 100.0 mg/kg/injection, schedule: Q01DX005 (ip), vehicle: saline
[9] = endpoint: mean survival time, dose: 100.0 mg/kg/injection, schedule: Q01DX009 (ip), vehicle: saline
[10] = endpoint: mean survival time, dose: 200.0 mg/kg/injection, schedule: Q01DX009 (ip), vehicle: saline
[11] = endpoint: mean survival time, dose: 400.0 mg/kg/injection, schedule: Q01DX009 (ip), vehicle: saline
[12] = endpoint: mean survival time, dose: 50.0 mg/kg/injection, schedule: Q01DX009 (ip), vehicle: saline with Tween-80
[13] = endpoint: mean survival time, dose: 100.0 mg/kg/injection, schedule: Q01DX009 (ip), vehicle: Klucel (hydroxypropylcellulose) (HPC)
[14] = endpoint: mean survival time, dose: 200.0 mg/kg/injection, schedule: Q01DX009 (ip), vehicle: Klucel (hydroxypropylcellulose) (HPC)

Measured: T/C

NC(=S)c1ccc(C(N)=S)cc1
inactive: endpoint: mean survival time, dose: 100.0 mg/kg/injection, schedule: Q01DX001 (ip), vehicle: Klucel (hydroxypropylcellulose) (HPC) 89 % of control | [1] 94 % of control | [2] 97 % of control | endpoint: mean survival time, dose: 200.0 mg/kg/injection, schedule: Q01DX001 (ip), vehicle: Klucel (hydroxypropylcellulose) (HPC) 89 % of control | [3] 93 % of control | [4] 97 % of control | [5] 90 % of control | [6] 98 % of control

Nc1nc2c(c(=O)[nH]1)CC(=O)N2
inactive: [7] 98 % of control | [8] 100 % of control | endpoint: median survival time, dose: 200.0 mg/kg/injection, schedule: Q01DX005 (ip), vehicle: saline 104 % of control

S=c1nc(-c2ccccc2)c(-c2ccccc2)n[nH]1
inactive: endpoint: mean survival time, dose: 75.0 mg/kg/injection, schedule: Q01DX009 (ip), vehicle: saline 93 % of control | endpoint: mean survival time, dose: 150.0 mg/kg/injection, schedule: Q01DX009 (ip), vehicle: saline 98 % of control

O=CNc1ccc(C(=O)O)c(O)c1
inactive: endpoint: mean survival time, dose: 100.0 mg/kg/injection, schedule: Q01DX001 (ip), vehicle: saline 95 % of control | [9] 94 % of control and 95 % of control | endpoint: mean survival time, dose: 100.0 mg/kg/injection, schedule: Q04DX002 (ip), vehicle: saline 97 % of control | [2] 100 % of control | endpoint: mean survival time, dose: 200.0 mg/kg/injection, schedule: Q01DX001 (ip), vehicle: saline 100 % of control and 106 % of control | [10] 96 % of control and 98 % of control | endpoint: mean survival time, dose: 200.0 mg/kg/injection, schedule: Q04DX002 (ip), vehicle: saline 86 % of control and 94 % of control | [4] 98 % of control | endpoint: mean survival time, dose: 400.0 mg/kg/injection, schedule: Q01DX001 (ip), vehicle: saline 88 % of control and 92 % of control | [11] 100 % of control | endpoint: mean survival time, dose: 400.0 mg/kg/injection, schedule: Q04DX002 (ip), vehicle: saline 92 % of control and 108 % of control | [6] 98 % of control

Cc1cc(Cl)ccc1NC(=O)SCc1ccc(Cl)cc1
inactive: [12] 95 % of control | [1] 100 % of control | [3] 103 % of control

FC(F)(F)C(Cl)Br (centres undefined)
inactive: [1] 98 % of control | [9] 97 % of control | [3] 96 % of control | [10] 98 % of control | [5] 95 % of control | [11] 103 % of control

Cc1ccc(NC(=O)OCCOc2ccc(Cl)cc2)cc1C
inactive: [12] 96 % of control | [1] 92 % of control | [3] 87 % of control

O=C1c2cc(Cl)ccc2-c2c(Cl)cc(Cl)cc21
inactive: [12] 92 % of control | [1] 101 % of control | [3] 89 % of control

OC1C2COC(O2)C(O)C1O (centres undefined) (tested in a mixture with another compound)
inactive: [9] 93 % of control | [10] 91 % of control | [11] 91 % of control

Clc1ccc(Oc2ccccc2)cc1
inactive: endpoint: mean survival time, dose: 100.0 mg/kg/injection, schedule: Q01DX001 (ip), vehicle: saline with Tween-80 96 % of control | endpoint: mean survival time, dose: 200.0 mg/kg/injection, schedule: Q01DX001 (ip), vehicle: saline with Tween-80 86 % of control | endpoint: mean survival time, dose: 400.0 mg/kg/injection, schedule: Q01DX001 (ip), vehicle: saline with Tween-80 91 % of control

O=c1[nH]c(=O)n2ncc(Br)c2[nH]1
inactive: [7] 102 % of control | [8] 102 % of control

Cc1cc(C)c(N2C(=O)CC(Sc3ccccc3N)C2=O)c(C)c1 (centres undefined)
inactive: [1] 92 % of control | [3] 96 % of control | [5] 94 % of control

CC(C)(C)c1ccc(O)cc1
inactive: [2] 94 % of control | [4] 95 % of control | [6] 88 % of control

C=CCOc1cc2c(cc1C(C)c1ccc(OC)cc1)OCO2 (centres undefined)
inactive: endpoint: median survival time, dose: 25.0 mg/kg/injection, schedule: Q01DX009 (ip), vehicle: Klucel (hydroxypropylcellulose) (HPC) 100 % of control and 103 % of control | endpoint: median survival time, dose: 50.0 mg/kg/injection, schedule: Q01DX005 (ip), vehicle: Klucel (hydroxypropylcellulose) (HPC) 94 % of control | endpoint: median survival time, dose: 50.0 mg/kg/injection, schedule: Q01DX009 (ip), vehicle: Klucel (hydroxypropylcellulose) (HPC) 120 % of control and 101 % of control and 104 % of control | endpoint: median survival time, dose: 50.0 mg/kg/injection, schedule: Q01DX009 (ip), vehicle: saline with Tween-80 105 % of control | endpoint: median survival time, dose: 100.0 mg/kg/injection, schedule: Q01DX005 (ip), vehicle: Klucel (hydroxypropylcellulose) (HPC) 103 % of control | endpoint: median survival time, dose: 100.0 mg/kg/injection, schedule: Q01DX009 (ip), vehicle: Klucel (hydroxypropylcellulose) (HPC) 105 % of control and 110 % of control | endpoint: median survival time, dose: 100.0 mg/kg/injection, schedule: Q01DX009 (ip), vehicle: saline with Tween-80 107 % of control | endpoint: median survival time, dose: 200.0 mg/kg/injection, schedule: Q01DX005 (ip), vehicle: Klucel (hydroxypropylcellulose) (HPC) 108 % of control | endpoint: median survival time, dose: 400.0 mg/kg/injection, schedule: Q01DX005 (ip), vehicle: Klucel (hydroxypropylcellulose) (HPC) 118 % of control | endpoint: median survival time, dose: 400.0 mg/kg/injection, schedule: Q01DX009 (ip), vehicle: saline with Tween-80 124 % of control | endpoint: median survival time, dose: 800.0 mg/kg/injection, schedule: Q01DX005 (ip), vehicle: Klucel (hydroxypropylcellulose) (HPC) 95 % of control | endpoint: median survival time, dose: 800.0 mg/kg/injection, schedule: Q01DX009 (ip), vehicle: saline with Tween-80 98 % of control

O=C(CCCl)Oc1c(Cl)c(Cl)c(Cl)c(Cl)c1Cl
inactive: [1] 92 % of control

O=[N+]([O-])c1cc[n+]([O-])cc1
inactive: endpoint: mean survival time, dose: 75.0 mg/kg/injection, schedule: Q01DX001 (ip), vehicle: saline 106 % of control

ClCC(CCl)N1CCCCC1
inactive: endpoint: mean survival time, dose: 6.25 mg/kg/injection, schedule: Q01DX001 (ip), vehicle: saline 103 % of control | endpoint: mean survival time, dose: 6.25 mg/kg/injection, schedule: Q01DX009 (ip), vehicle: saline sonified 102 % of control | endpoint: mean survival time, dose: 6.25 mg/kg/injection, schedule: Q04DX003 (ip), vehicle: saline 101 % of control | endpoint: mean survival time, dose: 12.5 mg/kg/injection, schedule: Q01DX001 (ip), vehicle: saline 104 % of control | endpoint: mean survival time, dose: 12.5 mg/kg/injection, schedule: Q01DX009 (ip), vehicle: saline sonified 109 % of control | endpoint: mean survival time, dose: 12.5 mg/kg/injection, schedule: Q04DX003 (ip), vehicle: saline 104 % of control | endpoint: mean survival time, dose: 25.0 mg/kg/injection, schedule: Q01DX001 (ip), vehicle: saline 107 % of control | endpoint: mean survival time, dose: 25.0 mg/kg/injection, schedule: Q04DX003 (ip), vehicle: saline 106 % of control

NC(=O)c1csc(COCCO)n1
inactive: endpoint: median survival time, dose: 40.63 mg/kg/injection, schedule: Q01DX005 (ip), vehicle: water 102 % of control | endpoint: median survival time, dose: 81.25 mg/kg/injection, schedule: Q01DX005 (ip), vehicle: water 99 % of control | endpoint: median survival time, dose: 162.5 mg/kg/injection, schedule: Q01DX005 (ip), vehicle: water 103 % of control | endpoint: median survival time, dose: 325.0 mg/kg/injection, schedule: Q01DX005 (ip), vehicle: water 96 % of control

CCOC(=O)C1=C(C)NC(C)=C(C(=O)OCC)C1c1ccccc1
inactive: [12] 98 % of control | endpoint: mean survival time, dose: 50.0 mg/kg/injection, schedule: Q04DX003 (ip), vehicle: saline with Tween-80 97 % of control | [1] 102 % of control | [2] 97 % of control and 100 % of control | [3] 102 % of control | [4] 90 % of control and 96 % of control | [6] 103 % of control

C/C=C(\NC1CCCCC1)C(=O)c1ccccc1
inactive: [13] 100 % of control | endpoint: mean survival time, dose: 100.0 mg/kg/injection, schedule: Q04DX003 (ip), vehicle: Klucel (hydroxypropylcellulose) (HPC) 101 % of control | [14] 109 % of control | endpoint: mean survival time, dose: 200.0 mg/kg/injection, schedule: Q04DX003 (ip), vehicle: Klucel (hydroxypropylcellulose) (HPC) 100 % of control | endpoint: mean survival time, dose: 400.0 mg/kg/injection, schedule: Q04DX003 (ip), vehicle: Klucel (hydroxypropylcellulose) (HPC) 97 % of control

CC(CN=Cc1ccccc1O)N=Cc1ccccc1O.[Cu] (centres undefined)
inactive: endpoint: mean survival time, dose: 25.0 mg/kg/injection, schedule: Q04DX002 (ip), vehicle: saline with Tween-80 96 % of control | endpoint: mean survival time, dose: 50.0 mg/kg/injection, schedule: Q04DX002 (ip), vehicle: saline with Tween-80 103 % of control | endpoint: mean survival time, dose: 100.0 mg/kg/injection, schedule: Q04DX002 (ip), vehicle: saline with Tween-80 100 % of control | endpoint: mean survival time, dose: 200.0 mg/kg/injection, schedule: Q04DX002 (ip), vehicle: saline with Tween-80 103 % of control

O=C1NN=C2CCCCC12 (centres undefined)
inactive: [13] 97 % of control | [14] 96 % of control | endpoint: mean survival time, dose: 400.0 mg/kg/injection, schedule: Q01DX009 (ip), vehicle: Klucel (hydroxypropylcellulose) (HPC) 102 % of control
